Values of other authors, collected in US20230190754A1, “Therapeutic combinations for the treatment of Progressive Fibrosing interstitial lung diseases” (Boehringer Ingelheim International GmbH, priority 2021, published 2023).

Tested on: PDE4 subtypes, A-D
Details: cited from earlier work

Row | Structure (SMILES) | Preferential enzymatic inhibition among the PDE4 subtypes (in words)
1 | CCOc1cc([C@@H](CS(C)(=O)=O)N2C(=O)c3cccc(NC(C)=O)c3C2=O)ccc1OC [apremilast] | None of these show any preferential enzymatic inhibition
2 | N#Cc1ccc(Oc2ccc3c(c2)COB3O)cc1 [crisaborole] | None of these show any preferential enzymatic inhibition
3 | O=C(Nc1c(Cl)cncc1Cl)c1ccc(OC(F)F)c(OCC2CC2)c1 [roflumilast] | None of these show any preferential enzymatic inhibition
